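Results reflect a 48-hour exposure of cells in 96-well plates to compound at five concentrations. GI50 is the concentration that inhibits growth by half.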 The source made the active and inactive calls. Rule as the data show it: active = GI50 up to about 1.1 µM and inactive = higher.
Assays:
Experiment in all cases: inhibition of tumour cell growth, NCI panel, 48 h
HOP-18 = test system: HOP-18
SNB-78 = test system: SNB-78
M19-MEL = test system: M19-MEL
KM-20L2 = test system: KM-20L2
LXFL 529 = test system: LXFL 529
DLD-1 = test system: DLD-1
BT-549 = test system: BT-549
XF498 = test system: XF498
RXF 631 = test system: RXF 631

CCOC(=O)C1=C(C)C2C3C(=O)NC(=O)C3C1(C)C1C(=O)NC(=O)C21 (centres undefined)
GI50 (HOP-18): 3.49 µM (inactive) | GI50 (SNB-78): > 100 µM (inactive) | GI50 (M19-MEL): > 100 µM (inactive) | GI50 (KM-20L2): > 100 µM (inactive) | GI50 (LXFL 529): > 100 µM (inactive) | GI50 (DLD-1): > 100 µM (inactive)

CC1=CC23C(COC(=O)C24CO4)C(C(=O)O)=CC3C1C (centres undefined)
GI50 (BT-549): 4.9 µM (inactive)

COc1cccc(N2C(=O)CS(=O)(=O)C2c2cccc(Oc3ccccc3)c2)c1 (centres undefined)
GI50 (BT-549): 20.1 µM (inactive)

CCOC(=O)c1cc(=O)n(C)c(=O)n1C
GI50 (XF498): > 100 µM (inactive) | GI50 (HOP-18): > 100 µM (inactive) | GI50 (SNB-78): > 100 µM (inactive) | GI50 (M19-MEL): > 100 µM (inactive) | GI50 (KM-20L2): > 100 µM (inactive) | GI50 (LXFL 529): > 100 µM (inactive) | GI50 (DLD-1): > 100 µM (inactive)

O=C(O)c1ccccc1Sc1ccccc1[N+](=O)[O-]
GI50 (BT-549): > 100 µM (inactive)

Nc1nc(N)c2cc(-c3ccccc3)cnc2n1
GI50 (BT-549): 16.6 µM (inactive)

COC(=O)c1ccccc1CC1Cc2ccc3c(c2C1=O)CCCC3 (centres undefined)
GI50 (BT-549): 49.1 µM (inactive)

CCCCCCCCCCCCN(CC(O)C(O)C(OC1OC(CO)C(O)C(O)C1O)C(O)CO)C(=O)CCCCCCCCCCC (centres undefined)
GI50 (BT-549): 20.4 µM (inactive)

COc1ccc(/C(=C\c2cc(OC)c(OC)c(OC)c2)C(=O)O)cc1
GI50 (XF498): 11.1 µM (inactive) | GI50 (HOP-18): > 100 µM (inactive) | GI50 (SNB-78): 39 µM (inactive) | GI50 (M19-MEL): 52 µM (inactive) | GI50 (KM-20L2): 21 µM (inactive) | GI50 (LXFL 529): 41 µM (inactive) | GI50 (DLD-1): 40.1 µM (inactive)

CC1=N/C(=C\c2ccc(/C=C3/N=C(C)OC3=O)cc2)C(=O)O1
GI50 (XF498): > 100 µM (inactive) | GI50 (HOP-18): > 100 µM (inactive) | GI50 (SNB-78): > 100 µM (inactive) | GI50 (M19-MEL): > 100 µM (inactive) | GI50 (KM-20L2): > 100 µM (inactive) | GI50 (LXFL 529): > 100 µM (inactive) | GI50 (DLD-1): > 100 µM (inactive)

Cn1cnc([N+](=O)[O-])c1Sc1nncc2[nH]cnc12
GI50 (BT-549): > 100 µM (inactive)

O=C(CCc1cc(-c2ccc(F)cc2)n[nH]1)N(Cc1ccccc1)Cc1ccccc1
GI50 (XF498): > 100 µM (inactive) | GI50 (HOP-18): > 100 µM (inactive) | GI50 (SNB-78): > 100 µM (inactive) | GI50 (M19-MEL): > 100 µM (inactive) | GI50 (KM-20L2): > 100 µM (inactive) | GI50 (LXFL 529): > 100 µM (inactive)

Nn1c(S)nnc1CCCCCCCCc1nnc(S)n1N
GI50 (BT-549): > 100 µM (inactive)

CC(=O)Nc1ccc(C(=O)N[C@@H]2C(=O)N3[C@@H]2SC(C)(C)[C@@H]3C(=O)O)cn1
GI50 (BT-549): > 100 µM (inactive)

CCN(CC)CCN(C)CC(C)(C)C(=O)/C=C/c1ccccc1
GI50 (XF498): 12.4 µM (inactive) | GI50 (HOP-18): 15.9 µM (inactive) | GI50 (M19-MEL): 11.6 µM (inactive) | GI50 (KM-20L2): 11.1 µM (inactive) | GI50 (LXFL 529): 12.3 µM (inactive) | GI50 (DLD-1): 5.46 µM (inactive)

CC(C)CCC1(CCN)C(=O)NC(=O)NC1=O
GI50 (BT-549): > 100 µM (inactive)

OC1(C(Sc2cc(C(F)(F)F)cc(C(F)(F)F)c2)Sc2cc(C(F)(F)F)cc(C(F)(F)F)c2)C=CCCC1 (centres undefined)
GI50 (BT-549): 3.35 µM (inactive)

O=C(NC(CS)C(=O)O)c1c2ccccc2nc2ccccc12 (centres undefined)
GI50 (BT-549): 12.8 µM (inactive)

OCC(O)C(OC1OC(CO)C(O)C(O)C1O)c1nn(-c2ccccc2)c2nc3cc(Cl)c(Cl)cc3cc12 (centres undefined)
GI50 (XF498): > 100 µM (inactive) | GI50 (RXF 631): > 100 µM (inactive) | GI50 (SNB-78): > 100 µM (inactive) | GI50 (M19-MEL): > 100 µM (inactive) | GI50 (KM-20L2): > 100 µM (inactive) | GI50 (LXFL 529): > 100 µM (inactive) | GI50 (DLD-1): > 100 µM (inactive)

Cc1cccc(Cl)c1NCC(O)CN1CCN(C)CC1 (centres undefined)
GI50 (BT-549): > 100 µM (inactive)

NNC(=S)N/N=C/C(=C/Nc1ccccc1)[N+](=O)[O-]
GI50 (XF498): > 100 µM (inactive) | GI50 (RXF 631): > 100 µM (inactive) | GI50 (M19-MEL): > 100 µM (inactive) | GI50 (KM-20L2): > 100 µM (inactive) | GI50 (LXFL 529): > 100 µM (inactive) | GI50 (DLD-1): > 100 µM (inactive)

O=C1OC(OC/C(Br)=C(\Br)COC2OC(=O)C(Cl)=C2Cl)C(Cl)=C1Cl (centres undefined)
GI50 (BT-549): 2.67 µM (inactive)

COc1c(C)c(C/C=C(\C)CCCCO[Si](C(C)C)(C(C)C)C(C)C)c(OC)c2ccccc12
GI50 (BT-549): > 100 µM (inactive)

N#CC(C(=N/NC(N)=S)/C(=N/NC(N)=S)C(C#N)c1ccc(Cl)cc1)c1ccc(Cl)cc1 (centres undefined)
GI50 (XF498): > 100 µM (inactive) | GI50 (HOP-18): 94.2 µM (inactive) | GI50 (SNB-78): 35.6 µM (inactive) | GI50 (M19-MEL): > 100 µM (inactive) | GI50 (KM-20L2): > 100 µM (inactive) | GI50 (LXFL 529): 49.7 µM (inactive) | GI50 (DLD-1): 34.1 µM (inactive)

N#Cc1c(-c2ccc(Cl)cc2)c(C#N)c(=O)n(NS(=O)(=O)c2ccccc2)c1-c1ccccc1
GI50 (BT-549): > 25 µM (inactive)

Cc1cc(C)c(S(=O)(=O)N2CCCN(S(=O)(=O)c3c(C)cc(C)cc3C)OCCCO2)c(C)c1
GI50 (BT-549): > 100 µM (inactive)

O=C(O)CNc1ccc2c(c1)Cc1cc(Br)ccc1-2
GI50 (BT-549): 23.3 µM (inactive)

Cc1ccc(S(=O)(=O)N/N=C/C(Br)=C(/Br)C(=O)O)cc1
GI50 (BT-549): 6.55 µM (inactive)

O=C(O)Cc1cccc2c(=O)c3ccccc3oc12
GI50 (BT-549): > 100 µM (inactive)

CC(=O)O[C@H]1C(=O)[C@@]2(C)[C@H]([C@H](OC(=O)C3CCCCC3)[C@]3(O)C[C@H](OC(=O)[C@H](O)[C@@H](NC(=O)C4CCCCC4)C4CCCCC4)C(C)=C1C3(C)C)[C@]1(OC(C)=O)CO[C@@H]1C[C@@H]2O
GI50 (BT-549): 0.0556 µM (active)

O=S(=O)(Cc1ccccc1)c1nnc(S(=O)(=O)c2ccc(Cl)cc2)s1
GI50 (BT-549): 20 µM (inactive)

CCC1C(c2cc(OC)c(OC)c(OC)c2)c2cc3c(cc2OC1N1CCCC1)OCO3 (centres undefined)
GI50 (BT-549): 4.06 µM (inactive)

COc1ccc(C2NC(=O)Nc3c2c(=O)oc2c3ccc3ccccc32)cc1 (centres undefined)
GI50 (BT-549): 41.6 µM (inactive)

N#Cc1ccc(C2ON=C(c3ccccc3)N2C23CC4CC(CC(C4)C2)C3)cc1 (centres undefined)
GI50 (BT-549): 5.66 µM (inactive)
